Key:
Human FXIIa = target: T1, Human FXIIa (Homo sapiens, UniProt P00748); assay: Factor XIIa (FXIIa) inhibitory activity, chromogenic substrate assay; format: biochemical; conditions: Human FXIIa 12.5 nM, Pefachrome XIIa 400 μM, 10 min preincubation
T1 construct: active coagulation factor XII (FXIIa); purchased Enzyme Research Labs
T1 sequence (P00748 373-615 limits assumed): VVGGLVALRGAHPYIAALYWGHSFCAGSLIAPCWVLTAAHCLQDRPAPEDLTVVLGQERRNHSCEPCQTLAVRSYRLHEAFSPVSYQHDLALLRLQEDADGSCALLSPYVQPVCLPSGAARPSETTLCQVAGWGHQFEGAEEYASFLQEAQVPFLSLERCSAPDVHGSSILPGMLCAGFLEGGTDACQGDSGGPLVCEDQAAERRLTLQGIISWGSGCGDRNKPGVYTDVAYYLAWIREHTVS
T1 sequence (P00748 20-372 partner limits assumed): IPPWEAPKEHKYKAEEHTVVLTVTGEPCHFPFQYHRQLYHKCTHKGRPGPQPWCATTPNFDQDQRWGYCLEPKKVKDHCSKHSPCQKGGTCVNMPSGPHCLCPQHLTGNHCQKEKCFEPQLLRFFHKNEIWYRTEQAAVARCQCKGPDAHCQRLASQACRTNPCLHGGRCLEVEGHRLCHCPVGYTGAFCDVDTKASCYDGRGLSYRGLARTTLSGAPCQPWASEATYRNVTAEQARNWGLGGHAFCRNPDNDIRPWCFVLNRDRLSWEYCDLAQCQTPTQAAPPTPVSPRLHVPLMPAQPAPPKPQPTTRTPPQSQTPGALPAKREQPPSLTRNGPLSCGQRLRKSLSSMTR
Summary of the method: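 Buffer was 0.5× HBSS with 25 mM HEPES pH 7.4 and 0.5× TBS-Tween 0.05%. Enzyme and compound (about 1–100 μM) were preincubated 10 min at room temperature, then Pefachrome XIIa was added at 400 μM final. Substrate cleavage was followed as the rate of A405 change at 37 °C.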

Human alpha-thrombin = target: T2, Human alpha-thrombin (Homo sapiens, UniProt P00734); assay: Thrombin counterscreen for selectivity, fluorogenic substrate assay; format: biochemical; conditions: Human alpha-thrombin 12.5 nM, Boc-Val-Pro-Arg-AMC 20 μM, 10 min preincubation
T2 construct: Human alpha-thrombin (Enzyme Research Labs); purchased Enzyme Research Labs
Method: Counterscreens for Selectivity:
In a 96-well white opaque plate, 80 μl of assay buffer was added to each well. Test compounds were added, and serially diluted as above, to generate a concentration range of approximately 1-100 μM. […] 80 μl of this enzyme solution was added to the assay wells. The enzyme/compound mixtures were incubated for 10 minutes at room temperature. Fluorogenic substrate (Boc-Val-Pro-Arg-7-amido-4-methylcoumarin; Sigma) was added to assay wells at a final concentration of 20 μM. The assay plate was spun for 1 minute at 1500 g and then read at 37° C. in a SpectraMax M2 plate reader (λex=380 nm and λem=460 nm). Activity was quantified as the rate of change in fluorescence, which corresponds to the rate of substrate cleavage.

IC50 (Human FXIIa) [µM] | IC50 (Human alpha-thrombin) [µM] | Compound
6 | > 150 | Nc1c2c(nn1C(=O)[C@H]1CCNc3ccccc31)CC[C@H](O)C2 (single isomer, unassigned) [Example 170, ((5S*)-3-amino-5-hydroxy-4,5,6,7-tetrahydroindazol-2-yl)((4S*)-1,2,3,4-tetrahydroquinolin-4-yl)methanone]
> 90 | > 90 | Nc1nn(C(=O)[C@H]2CCNc3ccccc32)c2c1C[C@@H](O)CC2 (single isomer, unassigned) [Example 171, ((5S*)-3-amino-5-hydroxy-4,5,6,7-tetrahydroindazol-1-yl)((4S*)-1,2,3,4-tetrahydroquinolin-4-yl)methanone]
> 100 | > 100 | Nc1nn(C(=O)[C@@H]2CCNc3ccccc32)c2c1C[C@@H](O)CC2 (single isomer, unassigned) [Example 172, ((5S*)-3-amino-5-hydroxy-4,5,6,7-tetrahydroindazol-1-yl)((4R*)-1,2,3,4-tetrahydroquinolin-4-yl)methanone]
0.1 | 30 | Nc1c2c(nn1C(=O)C1CCNc3ccc(F)cc31)CCC(F)(F)C2 (single isomer, unassigned) [Example 173, (S*)-(3-amino-5,5-difluoro-4,5,6,7-tetrahydroindazol-2-yl)(6-fluoro-1,2,3,4-tetrahydroquinolin-4-yl)methanone]
2 | > 100 | CO[C@H]1CCc2nn(C(=O)[C@H]3CCNc4ccc(F)cc43)c(N)c2C1 (single isomer, unassigned) [Example 177, ((5S*)-3-amino-5-methoxy-4,5,6,7-tetrahydroindazol-2-yl)((4S*)-6-fluoro-1,2,3,4-tetrahydroquinolin-4-yl)methanone]
0.09 | > 80 | CO[C@@H]1CCc2nn(C(=O)[C@@H]3CCNc4ccc(F)cc43)c(N)c2C1 (single isomer, unassigned) [Example 180, ((5R*)-3-amino-5-methoxy-4,5,6,7-tetrahydroindazol-2-yl)((4R*)-6-fluoro-1,2,3,4-tetrahydroquinolin-4-yl)methanone]
0.6 | > 100 | Nc1c2c(nn1C(=O)[C@H]1CCNc3ccc(F)cc31)C[C@@H](O)CC2 (single isomer, unassigned) [Example 183, ((6S*)-3-amino-6-hydroxy-4,5,6,7-tetrahydroindazol-2-yl)((4S*)-6-fluoro-1,2,3,4-tetrahydroquinolin-4-yl)methanone]
0.07 | > 100 | Nc1c2c(nn1C(=O)[C@H]1CCNc3ccc(F)cc31)C[C@H](O)CC2 (single isomer, unassigned) [Example 185, ((6R*)-3-amino-6-hydroxy-4,5,6,7-tetrahydroindazol-2-yl)((4S*)-6-fluoro-1,2,3,4-tetrahydroquinolin-4-yl)methanone]
0.4 | > 60 | Nc1c2c(nn1C(=O)C1CCNc3ccc(F)cc31)CCC(NC(=O)OCc1ccccc1)C2 (single isomer, unassigned) [Example 190, Benzyl N-[(5S*)-3-amino-2-[(6-fluoro-1,2,3,4-tetrahydroquinolin-4-yl)carbonyl]-4,5,6,7-tetrahydro-2H-indazol-5-yl]carbamate]
1.5 | > 150 | Cc1cccc2c1NCC[C@H]2C(=O)n1nc2c(c1N)CC[C@H](O)C2 (single isomer, unassigned) [Example 197, ((6S*)-3-amino-6-hydroxy-4,5,6,7-tetrahydroindazol-2-yl)((4R*)-8-methyl-1,2,3,4-tetrahydroquinolin-4-yl)methanone]
0.1 | > 100 | Cc1cccc2c1NCC[C@@H]2C(=O)n1nc2c(c1N)CC[C@H](O)C2 (single isomer, unassigned) [Example 198, ((6S*)-3-amino-6-hydroxy-4,5,6,7-tetrahydroindazol-2-yl)((4S*)-8-methyl-1,2,3,4-tetrahydroquinolin-4-yl)methanone]
0.04 | > 100 | Nc1c2c(nn1C(=O)[C@H]1CCNc3c(Cl)cccc31)C[C@H](O)CC2 (single isomer, unassigned) [Example 209, ((6R*)-3-amino-6-hydroxy-4,5,6,7-tetrahydroindazol-2-yl)((4S*)-8-chloro-1,2,3,4-tetrahydroquinolin-4-yl)methanone]
3.3 | > 100 | Nc1c2c(nn1C(=O)[C@@H]1CCNc3c(Cl)cccc31)C[C@H](O)CC2 (single isomer, unassigned) [Example 210, ((6R*)-3-amino-6-hydroxy-4,5,6,7-tetrahydroindazol-2-yl)((4R*)-8-chloro-1,2,3,4-tetrahydroquinolin-4-yl)methanone]
0.05 | > 90 | Cc1cccc2c1NCC[C@@H]2C(=O)n1nc2c(c1N)C[C@H](O)CC2 (single isomer, unassigned) [Example 218, ((5R*)-3-amino-5-hydroxy-4,5,6,7-tetrahydro-2H-indazol-2-yl)((4S*)-8-methyl-1,2,3,4-tetrahydroquinolin-4-yl)methanone]
0.08 | > 90 | Nc1c2c(nn1C(=O)[C@H]1CCNc3ccc(F)cc31)CC[C@H](N)C2 (stereo in doubt) [Example 192, ((5S*)-3,5-diamino-4,5,6,7-tetrahydroindazol-2-yl)((4S*)-6-fluoro-1,2,3,4-tetrahydroquinolin-4-yl)methanone]
90 | > 100 | Cc1cc2c(C(=O)N3N=C(N)C4CCCCC43)cccc2[nH]1 (stereo not drawn) [Example 10, (3-amino-3a,4,5,6,7,7a-hexahydroindazol-1-yl)(2-methyl-1H-indol-4-yl)methanone]
> 10 | > 10 | O=C(Nc1[nH]nc2c1CCCC2)C1OCCc2ccccc21 (stereo not drawn) [Example 14, N-(4,5,6,7-tetrahydro-2H-indazol-3-yl)isochroman-1-carboxamide]
0.04 | 20 | Cc1cc2c(C(=O)n3nc4c(c3N)CCCC4)cccc2n1C [Example 22, (3-Amino-4,5,6,7-tetrahydroindazol-2-yl)(1,2-dimethyl-1H-indol-4-yl)methanone]
0.4 | 6 | O=C(c1cccc2[nH]ccc12)n1cc2c(n1)CCCC2 [Example 27, (1H-indol-4-yl)(4,5,6,7-tetrahydroindazol-2-yl)methanone]
0.06 | 36 | CCn1ccc2c(C(=O)n3nc4c(c3N)CCCC4)cccc21 [Example 28, (3-amino-4,5,6,7-tetrahydroindazol-2-yl)(1-ethyl-1H-indol-4-yl)methanone]
0.15 | > 50 | CC(C)n1ccc2c(C(=O)n3nc4c(c3N)CCCC4)cccc21 [Example 29, (3-amino-4,5,6,7-tetrahydroindazol-2-yl)(1-isopropyl-1H-indol-4-yl)methanone]
5 | > 70 | Nc1c2c(nn1C(=O)c1cccc3c1ccn3Cc1ccccc1)CCCC2 [Example 30, (3-amino-4,5,6,7-tetrahydroindazol-2-yl)(1-benzyl-1H-indol-4-yl)methanone]
0.15 | > 50 | CC(C)(C)c1cccc(C(=O)n2nc3c(c2N)CCCC3)c1 [Example 31, (3-amino-4,5,6,7-tetrahydroindazol-2-yl)(3-tert-butylphenyl)methanone]
0.15 | > 50 | Nc1c2c(nn1C(=O)c1csc3ccccc13)CCCC2 [Example 32, (3-amino-4,5,6,7-tetrahydroindazol-2-yl)(benzo[b]thiophen-3-yl)methanone]
> 100 | > 100 | Cc1csc(C)c1C(=O)n1cc2c(n1)CCCC2 [Example 35, 2-[(2,4-dimethylthiophen-3-yl)carbonyl]-4,5,6,7-tetrahydro-2H-indazole]
0.2 | > 80 | CCCn1ccc2c(C(=O)n3nc4c(c3N)CCCC4)cccc21 [Example 36, (3-amino-4,5,6,7-tetrahydroindazol-2-yl)(1-propyl-1H-indol-4-yl)methanone]
2.5 | > 75 | CCC(C)n1ccc2c(C(=O)n3nc4c(c3N)CCCC4)cccc21 (stereo not drawn) [Example 37, (3-amino-4,5,6,7-tetrahydroindazol-2-yl)(1-sec-butyl-1H-indol-4-yl)methanone]
